Reference: PubChem BioAssay (NCI)
Several values for one entry are separate records, joined by “and”; a condition that tells them apart may be missing. Identical values can stand only once.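 Each compound was tested at five concentrations against cells in 96-well plates for 48 hours. GI50 is the concentration that inhibits growth by half. Definition used: TGI = concentration required for complete inhibition of growth.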

How the values were obtained:
Assay in all cases: DTP human tumour cell line panel, 48 h
A498 renal = tested on: A498 renal
HCT-116 colon = tested on: HCT-116 colon
HCT-15 colon = tested on: HCT-15 colon
M14 melanoma = tested on: M14 melanoma
NCI-H226 lung = tested on: NCI-H226 lung
SF-268 CNS = tested on: SF-268 CNS
SF-295 CNS = tested on: SF-295 CNS
SK-OV-3 ovarian = tested on: SK-OV-3 ovarian
SW-620 colon = tested on: SW-620 colon
NCI/ADR-RES ovarian = tested on: NCI/ADR-RES ovarian

Compound | GI50 (A498 renal) [µM] | TGI (A498 renal) [µM] | GI50 (HCT-116 colon) | TGI (HCT-116 colon) | GI50 (HCT-15 colon) [µM] | TGI (HCT-15 colon) [µM] | GI50 (M14 melanoma) [µM] | TGI (M14 melanoma) [µM] | GI50 (NCI-H226 lung) [µM] | TGI (NCI-H226 lung) [µM] | GI50 (SF-268 CNS) | TGI (SF-268 CNS) [µM] | GI50 (SF-295 CNS) | TGI (SF-295 CNS) | GI50 (SK-OV-3 ovarian) [µM] | TGI (SK-OV-3 ovarian) [µM] | GI50 (SW-620 colon) | TGI (SW-620 colon) | GI50 (NCI/ADR-RES ovarian) | TGI (NCI/ADR-RES ovarian)
COc1cc(/C=C/C(=O)c2cc(OC)c(OC)c(OC)c2)cc(OC)c1OC | 2.47 | 9.47 | 2.3 µM | 8.74 µM | 3.41 | 62.9 | 2.82 | 12.7 | 6.36 | 87.4 | 2.77 µM | 10 | 2.18 µM | 7.85 µM | 11.5 | > 100 | 2.18 µM | 5.67 µM | – | –
Cc1nn(C)c(=S)n(C)c1=O | – | 37.7 | – | 10.8 µM | – | > 100 | – | > 100 | – | > 100 | – | > 100 | – | > 100 µM | – | 42.8 | – | > 100 µM | – | –
CC1(CO)C(=O)OC12CCCCC2 (stereo not drawn) | – | > 100 | – | > 100 µM | – | – | – | > 100 | – | > 100 | – | > 100 | – | > 100 µM | – | > 100 | – | > 100 µM | – | –
CN(Cc1ccccc1)C1(N(C)Cc2ccccc2)CC1 | – | > 100 | – | > 100 µM | – | > 100 | – | > 100 | – | > 100 | – | > 100 | – | > 100 µM | – | > 100 | – | > 100 µM | – | –
NC(=S)N/N=C(\C(=O)Nc1ccc(Cl)c(Cl)c1)C1=NN(c2ccccc2)C(c2cccc([N+](=O)[O-])c2)CC1=O (stereo not drawn) | – | > 100 | – | 11.6 µM | – | > 100 | – | > 100 | – | 93.6 | – | > 100 | – | 57.2 µM | – | > 100 | – | 35.5 µM | – | –
CC1=C(c2cc(C(=O)Nc3cccc(C(F)(F)F)c3)nc(NC#N)n2)Sc2ccccc2N1 | – | > 100 | – | > 100 µM | – | > 100 | – | > 100 | – | > 100 | – | > 100 | – | > 100 µM | – | > 100 | – | > 100 µM | – | –
COc1cc(C(CC(OC)OC)=C(C#N)C#N)cc(OC)c1OC | – | 40 | – | 44.1 µM | – | > 100 | – | – | – | 13.9 | – | > 100 | – | 62.9 µM | – | > 100 | – | > 100 µM | – | –
COc1cccc2c(Nc3ccc(C(=O)NCCN(C)C)cc3)cc(-c3ccccc3)nc12 | 17.2 | 32 | 3.88 µM | 18.6 µM | 16.4 | 38.4 | 16.3 | 30.5 | 19.3 | 40 | – | – | 22.9 µM | 41.4 µM | 29.4 | 71.2 | 14 µM | 33.4 µM | 18.3 µM | 42.9 µM
COc1ccc(Cn2cc(Cn3c(=O)c(-c4nc5ccccc5[nH]4)cc4ccccc43)nn2)c(OC)c1OC | 0.118 | 0.607 | 0.094 µM and 0.0954 µM | 1.25 µM and 1.73 µM | 0.378 | > 100 | – | – | 0.338 | > 100 | 0.55 µM and 0.477 µM | – | 0.239 µM and 0.324 µM | 1.19 µM and 1.94 µM | – | – | 0.223 µM and 0.293 µM | 50 µM and > 100 µM | 1.1 µM and 1.83 µM | 3.96 µM and 15.8 µM
COc1ccc2sc3c(NCCCNCCO)nc4ccccc4c3c(=O)c2c1 | 1.49 | 2.97 | 1.59 µM | 3.03 µM | 1.45 | 2.87 | 1.82 | 3.48 | 2.09 | 3.75 | 1.52 µM | 3.16 | 1.73 µM | 3.15 µM | – | – | 1.61 µM | 3.13 µM | 1.76 µM | 3.53 µM
COc1ccc(/C=C/C(C(=O)O)C(=O)O)cc1 | – | – | – | > 100 µM | – | > 100 | – | > 100 | – | > 100 | – | > 100 | – | > 100 µM | – | > 100 | – | > 100 µM | – | –
CN(C)CCNC(=O)c1cccc2c1nc(-c1ccccn1)c1ccccc12 | – | 27.2 | – | 23 µM | – | 30.6 | – | 32.2 | – | – | – | 61.6 | – | 41.1 µM | – | 37.3 | – | 27.3 µM | – | –
N#Cc1nc(Nc2ccc([N+](=O)[O-])cc2)sc1N | – | > 100 | – | > 100 µM | – | > 100 | – | 66.8 | – | > 86.3 | – | > 100 | – | > 100 µM | – | 97.5 | – | > 100 µM | – | –
C=CCNc1cccc2c1C(=O)c1ccccc1C2(O)CC=C (stereo not drawn) | 21.8 | 47.8 | 17.7 µM | 32.3 µM | 15.5 | 57 | 19 | 41 | 20.2 | 49.2 | 62.7 µM | > 100 | 25.7 µM | 55 µM | – | – | 22.2 µM | 55.1 µM | 22.4 µM | 58.4 µM
COP1(=S)OCC2CCC[C@@H]2O1 (stereo partly drawn) | – | > 100 | – | > 100 µM | – | > 100 | – | > 100 | – | > 100 | – | > 100 | – | > 100 µM | – | – | – | > 100 µM | – | > 100 µM
CC1=N/C(=C\c2cccc3ccccc23)C(=O)O1 | – | > 100 | – | > 100 µM | – | > 100 | – | > 100 | – | – | – | > 100 | – | > 100 µM | – | – | – | > 100 µM | – | –
CC(C)(C)c1nnc2n(c1=O)N=CC(c1ccc(Br)cc1)S2 (stereo not drawn) | – | – | 23.9 µM | 50.9 µM | 20.1 | 48 | 24.4 | 63.1 | 21.4 | 51 | 42.7 µM | > 100 | 12.1 µM | 58.9 µM | 89.9 | > 100 | 35.1 µM | > 100 µM | 26.4 µM | 61.6 µM
CCCCCCCCCC(=O)N[C@H]1CCc2cc(OC)c(OC)c(OC)c2-c2ccc(SC)c(=O)cc21 | – | 0.0596 | – | 0.0586 µM | – | 0.0901 | – | – | 0.619 | – | – | – | – | – | – | 0.0678 | – | > 100 µM | – | –
Cc1ccc(N(C(=O)CC(=O)N2N=C(c3ccccc3)C(N=Nc3ccc([N+](=O)[O-])cc3)C2=O)C(=O)c2ccc(Cl)cc2)cc1 (stereo not drawn) | – | 36.9 | – | 22.4 µM | – | > 48.6 | – | 18.4 | – | > 94.8 | – | 35.4 | – | 25.6 µM | – | 32.2 | – | > 59.6 µM | – | –
